Measurements as given in patent publication US6844342B2, “Heterocyclic substituted 2-methyl-benzimidazole antiviral agents” (Bristol-Myers Squibb Company, priority 2000, dated 2005).

Test system: respiratory syncytial virus Long strain
Assay: Antiviral activity against respiratory syncytial virus in HEp-2 cells (MTT cell protection)
Format: cell-based
Procedure: The antiviral activity of these compounds against respiratory syncytial virus was determined in HEp-2 (ATCC CCL 23) cells that were seeded in 96 well microtiter plates at 1.5×10^4 cells/100 μL/well in DMEM (Dulbecco's Modified Eagle's Medium) supplemented with penicillin, streptomycin, glutamine, and 10% fetal bovine serum. The cells were incubated overnight at 37° C., the culture medium was removed, and cells were infected (100 μL volume in medium containing 2% fetal bovine serum) with respiratory syncytial virus Long strain at 5000 plaque forming units/mL. The compounds, 100 μL at appropriate dilution, were added to the cells 1 hour post infection. After incubation for 4 days at 37° C., the plates were stained with MTT solution (3-[4,5-dimethlythiazol-2-yl]-2,5-diphenyltetrazolium bromide) and incubated for 4 hours at 37° C. The media was aspirated from the cells and 100 μL/well of acidified isopropanol (per liter: 900 mL isopropanol, 100 mL Triton X100, and 4 mL conc. HCl) was added. Plates were incubated for 15 minutes at room temperature with shaking, and an optical density (OD 540) reading at 540 nanometer (nm) was obtained. The optical density reading is proportional to the number of viable cells. The increase in the number of viable cells reflects the protective, antiviral activity of the compound. […]

- EC50 (human respiratory syncytial virus, HEp-2 cells infected with RSV Long strain, compound added 1 hour post infection, 4 days at 37° C., read-out: EC50 (concentration that produces 50% cell protection)): 3000 nM
Compound: NC(=O)c1ncn([C@@H]2O[C@H](CO)[C@@H](O)[C@H]2O)n1 [Ribavirin]
- cell protection (at 2.5 μg/mL (corresponding to 10.2 μM), HEp-2 cells, RSV Long strain): 100%
